The values below come from patent US20090118286A1, “Heterobicyclic Acrylamides” (Bayer Cropscience AG, priority 2005, published 2009).

One data set concerns Sphaerotheca fuliginea. The experiment in a line: Sphaerotheca test (cucumber)/protective. It counts as in vivo. The following applies: application rate 500 ppm, protective, evaluation 7 days after inoculation. As to the method:
[table] To produce a suitable preparation of active compound, 1 part by weight of active compound is mixed with the stated amounts of solvent and emulsifier, and the concentrate is diluted with water to the desired concentration. To test for protective activity, young cucumber plants are sprayed with the preparation of active compound at the stated application rate. 1 day after the treatment, the plants are inoculated with a spore suspension of Sphaerotheca fuliginea. The plants are then placed in a greenhouse at 70% relative atmospheric humidity and a temperature of 23° C. Evaluation is carried out 7 days after the inoculation. 0% means an efficacy which corresponds to that of the control, whereas an efficacy of 100% means that no infection is observed.

Data set [1] is described as follows: log P determination by HPLC (EEC Directive 79/831 Annex V.A8, gradient method). Conditions: HPLC, gradient method, acetonitrile/0.1% strength aqueous phosphoric acid or formic acid. It counts as physicochemical.
In data set [2] the test system is larvae of the mustard beetle (Phaedon cochleariae). The experiment in a line: Phaedon test, PHAECO spray treatment. It counts as in vivo. Conditions: foliar, 168 h, 500 g a. i./ha, spray treatment of Chinese cabbage leaf discs, 7 d, read-out: % 7 d (effect in %, beetle larvae killed). As to the method:
(§1) [table] To produce a suitable preparation of active compound, 1 part by weight of active compound is mixed with the stated amounts of solvents and emulsifier, and the concentrate is diluted with emulsifier-containing water to the desired concentration. Discs of Chinese cabbage leaves (Brassica pekinensis) are sprayed with a preparation of active compound of the desired concentration and, after drying, populated with larvae of the mustard beetle (Phaedon cochleariae). After the desired period of time, the effect in % is determined. 100% means that all beetle larvae have been killed; 0% means that none of the beetle larvae have been killed.

In data set [3] the test system is caterpillars of the army worm (Spodoptera frugiperda). The experiment in a line: Spodoptera frugiperda test, SPODFR spray treatment. Format: in vivo. Conditions: foliar, 168 h, 500 g a. i./ha, spray treatment of maize leaf discs, 7 d, read-out: % 7 d (effect in %, caterpillars killed). As to the method: as §1, with “maize” for “Chinese cabbage”, “(Zea mays)” for “(Brassica pekinensis)”, “caterpillars” for “larvae”, “army worm (Spodoptera frugiperda).” for “mustard beetle (Phaedon cochleariae).”, “caterpillars” for “beetle larvae”

Another data set has as its system Botrytis cinerea. The experiment in a line: Botrytis test (bean)/protective. Format: in vivo. Conditions: application rate 500 ppm, protective, evaluation 2 days after inoculation. As to the method: [table] To produce a suitable preparation of active compound, 1 part by weight of active compound is mixed with the stated amounts of solvents and emulsifier, and the concentrate is diluted with water to the desired concentration. To test for protective activity, young plants are sprayed with the preparation of active compound at the stated application rate. After the spray coating has dried on, 2 small pieces of agar colonized by Botrytis cinerea are placed onto each leaf. The inoculated plants are placed in a dark chamber at about 20° C. and 100% relative atmospheric humidity. 2 days after the inoculation, the size of the infected areas on the leaves is evaluated. 0% means an efficacy which corresponds to that of the control, whereas an efficacy of 100% means that no infection is observed.

Like-named read-outs stand apart in the source and are kept apart here.

In turn, `C=CCN(C)C(=O)/C=C/c1c(-c2ccc(Cl)cc2)nc2sc(C(F)(F)F)nn12` [Example 0067] had an Efficacy in % with Sphaerotheca fuliginea of 90%. Moreover, the chromatographic logP in data set [1] (read-out: Physical data (logP)) worked out at 3.95.
Consider `O=C(/C=C/c1c(-c2cccc(Cl)c2)nc2sc(C(F)(F)F)nn12)N1CCOCC1` [Example 0142], for which the pest or weed control at 500 g/ha in data set [2] stood at 100%. Besides, the chromatographic logP in data set [1] (read-out: Physical data (logP)) came out at 3.31.
For the compound `CC(C)NC(=O)/C=C/c1c(-c2ccccc2Cl)nc2sc(C(F)(F)F)nn12` [Example 0148], the figures for the pest or weed control at 500 g/ha in data set [3] and in data set [2] were 100% and 83%, respectively. Besides, the chromatographic logP in data set [1] (read-out: Physical data (logP)) is 3.13.
As to `O=C(/C=C/c1c(-c2ccccc2Cl)nc2sc(C(F)(F)F)nn12)NC1CC1` [Example 0152], in data set [2], the pest or weed control at 500 g/ha stood at 100%. Also, the chromatographic logP in data set [1] (read-out: Physical data (logP)) stood at 2.88.
In the same order, the values of `O=C(/C=C/c1c(-c2ccccc2Cl)nc2sc(C(F)(F)F)nn12)NCC1CC1` [Example 0166] are 100% and 3.26.
Regarding `CC(NC(=O)/C=C/c1c(-c2ccccc2Cl)nc2sc(C(F)(F)F)nn12)c1ccccn1` (stereo not drawn) [Example 0203], the pest or weed control at 500 g/ha worked out at 100% in data set [3] and 83% in data set [2]. The chromatographic logP in data set [1] (read-out: Physical data (logP)) was 2.39.
Turning to `CC(NC(=O)/C=C/c1c(-c2cccc(C(F)(F)F)c2)nc2sc(C(F)(F)F)nn12)c1ccccn1` (stereo not drawn) [Example 0416], the pest or weed control at 500 g/ha in data set [2] amounted to 100%. The chromatographic logP in data set [1] (read-out: Physical data: log P) amounted to 3.03.
On to `O=C(/C=C/c1c(-c2ccc(F)cc2Cl)nc2sc(C(F)(F)F)nn12)NC1CC1` [Example 0585], for which the pest or weed control at 500 g/ha in data set [3] and in data set [2] was 100% each time. Moreover, the chromatographic logP in data set [1] (read-out: Physical data: log P) amounted to 3.03.
Turning to `CC(NC(=O)/C=C/c1c(-c2ccc(F)cc2Cl)nc2sc(C(F)(F)F)nn12)C(F)(F)F` (stereo not drawn) [Example 0598], the pest or weed control at 500 g/ha in data set [3] and in data set [2] was 100% in each case. The chromatographic logP in data set [1] (read-out: Physical data: log P) came to 3.79.
In the case of `O=C(/C=C/c1c(-c2ccc(F)cc2Cl)nc2sc(C(F)(F)F)nn12)NCC(F)(F)F` [Example 0603], the pest or weed control at 500 g/ha in data set [3] turned out to be 100%. The chromatographic logP in data set [1] (read-out: Physical data: log P) turned out to be 3.51.
The matching figures for `O=C(/C=C/c1c(-c2ccc(F)cc2Cl)nc2sc(C(F)(F)F)nn12)NCCC(F)(F)F` [Example 0604]: 100% and 3.51.
In the same order, the values of `C[C@@H](NC(=O)/C=C/c1c(-c2ccc(F)cc2Cl)nc2sc(C(F)(F)F)nn12)C(F)(F)F` [Example 0608] are 100% and 3.77.
In the same order, the values of `O=C(/C=C/c1c(-c2ccc(F)cc2Cl)nc2sc(C(F)(F)F)nn12)NCC(F)(F)C(F)(F)F` [Example 0610] are 100% and 3.97.
For the compound `O=C(/C=C/c1c(-c2ccc(F)cc2Cl)nc2sc(C(F)(F)F)nn12)Nc1ccc(F)cc1` [Example 0624], the pest or weed control at 500 g/ha in data set [3] amounted to 100%. The chromatographic logP in data set [1] (read-out: Physical data: log P) was 4.17.
Take `CCC(CC)NC(=O)/C=C/c1c(-c2ccc(F)cc2Cl)nc2sc(C(F)(F)F)nn12` [Example 0638]: in data set [3], the pest or weed control at 500 g/ha was 100%. For the same compound, the chromatographic logP in data set [1] (read-out: Physical data: logP) was determined as 3.89.
In the case of `COc1ccc(-c2nc3sc(C(F)(F)F)nn3c2/C=C/C(=O)NC(C)(C)C)cc1OC` [Example 0654], the pest or weed control at 500 g/ha in data set [2] came out at 100%. Moreover, the chromatographic logP in data set [1] (read-out: Physical data: logP) amounted to 3.37.
On to `CC(C)NC(=O)/C=C/c1c(-c2ccccc2Cl)nc2sc(C(F)(F)Cl)nn12` [Example 0724], for which the pest or weed control at 500 g/ha in data set [3] and in data set [2] was 100% each time. For the same compound, in data set [1] (read-out: Physical data: logP), the chromatographic logP was 3.36.
Consider `O=C(/C=C/c1c(-c2ccccc2Cl)nc2sc(C(F)(F)Cl)nn12)NC1CC1` [Example 0728], for which the pest or weed control at 500 g/ha in data set [3] and in data set [2] was 100% in each case. The chromatographic logP in data set [1] (read-out: Physical data: logP) was 3.07.
As to `CC(NC(=O)/C=C/c1c(-c2cc(Cl)ccc2Cl)nc2sc(C(F)(F)F)nn12)C(F)(F)F` (stereo not drawn) [Example 0729], the pest or weed control at 500 g/ha in data set [2] was 100%.
On to `CCC(C)NC(=O)/C=C/c1c(-c2ccccc2Cl)nc2sc(C(F)(F)Cl)nn12` (stereo not drawn) [Example 0733], for which the pest or weed control at 500 g/ha in data set [3] came to 100%. In data set [1] (read-out: Physical data: logP), the chromatographic logP amounted to 3.67.
Consider `CCCC(C)NC(=O)/C=C/c1c(-c2ccccc2Cl)nc2sc(C(F)(F)Cl)nn12` (stereo not drawn) [Example 0734], for which the pest or weed control at 500 g/ha in data set [3] and in data set [2] was 100% each time. Further, the chromatographic logP in data set [1] (read-out: Physical data: logP) is 4.06.
For `CC(C)C(C)NC(=O)/C=C/c1c(-c2ccccc2Cl)nc2sc(C(F)(F)Cl)nn12` (stereo not drawn) [Example 0740], the pest or weed control at 500 g/ha in data set [3] is 100%. For the same compound, the chromatographic logP in data set [1] (read-out: Physical data: logP) is 3.97.
The matching figures for `CC(NC(=O)/C=C/c1c(-c2ccccc2Cl)nc2sc(C(F)(F)Cl)nn12)C(F)(F)F` (stereo not drawn) [Example 0741]: 100% and 3.8.
In the same order, the values of `O=C(/C=C/c1c(-c2ccccc2Cl)nc2sc(C(F)(F)Cl)nn12)Nc1ccc(F)cc1` [Example 0767] are 100% and 4.19.
For the compound `CCC(CC)NC(=O)/C=C/c1c(-c2ccccc2Cl)nc2sc(C(F)(F)Cl)nn12` [Example 0781], the pest or weed control at 500 g/ha in data set [3] was found to be 100%. Also, in data set [1] (read-out: Physical data: logP), the chromatographic logP was 3.95.
The matching figures for `CC(NC(=O)/C=C/c1c(-c2cc(Cl)ccc2Cl)nc2sc(C(F)(F)F)nn12)C(F)(F)F` (stereo not drawn) [Example 0792]: 100% and 4.13.
As for `CC(NC(=O)/C=C/c1c(-c2ccc(Cl)c(Cl)c2)nc2sc(C(F)(F)F)nn12)c1ccccn1` (stereo not drawn) [Example 0793], the pest or weed control at 500 g/ha in data set [2] was 100%. The chromatographic logP in data set [1] (read-out: Physical data: logP) was 3.26.
Take `CCN(CC)C(=O)/C=C/c1c(-c2ccccc2)nc2sc(C(F)(F)F)nn12` [Example 0912]: the Efficacy in % stood at 95% with Sphaerotheca fuliginea and 93% in the data set with Botrytis cinerea.
With `CC(C)CN(C)C(=O)/C=C/c1c(-c2ccccc2)nc2sc(C(F)(F)F)nn12` [Example 0913], in the data set with Sphaerotheca fuliginea, the Efficacy in % worked out at 90%.
